Source: patent publication US11072607B2, “Inhibitors of RIP1 kinase and methods of use thereof” (priority 2016, dated 2021)

The compounds below were run against human RIP1 kinase domain (2-375) (Homo sapiens (Human), UniProt Q13546) (assay: RIP1 kinase inhibition assay (biochemical, Transcreener ADP assay)). Conditions: RIP1 Ki, tight-binding apparent inhibition constant (Ki app, Morrison equation); 50 nM enzyme, 50 uM ATP, 2 hours incubation, fluorescence polarization.
Procedure: Example 45: RIP1 Kinase Inhibition Assays (Biochemical Assay)
The compounds of the present invention were tested for their capacity to inhibit RIP1K activity as described below.
The ability of the receptor interacting protein kinase (RIPK1) to catalyze the hydrolysis of adenosine-5′-triphosphate (ATP) is monitored using the Transcreener ADP (adenosine-5′-diphosphate) assay (BellBrook Labs). Purified human RIP1 kinase domain (2-375) (50 nM) derived from a baculovirus-infected insect cell expression system is incubated with test compounds for 2 hours in 50 mM Hepes buffer (pH 7.5) containing 30 mM MgCl2, 1 mM dithiothreitol, 50 uM ATP, 0.002% Brij-35, and 0.5% dimethyl sulfoxide (DMSO). Reactions are quenched by the addition of 1× Bell Brooks Stop buffer B (20 mM Hepes (ph 7.5), 40 mM ethylenediaminetetraacetic acid and 0.02% Brij-35) containing an additional 12 mM EDTA and 55 ug/mL ADP2 antibody and 4 nM ADP-AlexaFluor® 633 tracer. The tracer bound to the antibody is displaced by the ADP generated during the RIP1K reaction, which causes a decrease in fluorescence polarization that is measured by laser excitation at 633 nm with a FP microplate reader M1000. Fractional activity was plotted against test article concentration. Using Genedata Screener software (Genedata; Basel, Switzerland), the data were fit to the tight-binding apparent inhibition constant (Ki^app) Morrison equation [Williams, J. W. and Morrison, J. F. (1979) The kinetics of reversible tight-binding inhibition. Methods Enzymol 63: 437-67]. The following equation was used to calculate fractional activity and Ki^app: […]
where [E]T and [I]T are the total concentrations of active enzyme and test article, respectively. […]

Chain of human RIP1 kinase domain (2-375) (Q13546 2-375): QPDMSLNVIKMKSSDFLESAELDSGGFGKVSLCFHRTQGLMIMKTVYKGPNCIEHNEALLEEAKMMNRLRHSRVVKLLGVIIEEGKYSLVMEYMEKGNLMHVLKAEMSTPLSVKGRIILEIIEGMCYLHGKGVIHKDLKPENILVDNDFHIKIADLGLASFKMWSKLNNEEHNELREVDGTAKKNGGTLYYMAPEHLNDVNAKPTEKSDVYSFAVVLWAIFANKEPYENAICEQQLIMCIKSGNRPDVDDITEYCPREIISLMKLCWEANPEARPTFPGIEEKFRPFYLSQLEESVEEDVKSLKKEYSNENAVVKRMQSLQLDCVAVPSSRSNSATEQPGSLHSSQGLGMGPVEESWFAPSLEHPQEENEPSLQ

Row | SMILES | Ki [nM]
1 | CN1C(=O)[C@@H](NC(=O)c2nc3n(n2)[C@H](c2ccccc2)C[C@@H]3F)CCn2nccc21 (mixture of isomers) [Example #29, Rac-(5S,7S)-7-fluoro-5-phenyl-N-[(6S)-4-methyl-5-oxo-7,8-dihydro-6H-pyrazolo[1,5-a][1,3]diazepin-6-yl]-6,7-dihydro-5H-pyrrolo[1,2-b][1,2,4]triazole-2-carboxamide] | 43
2 | CN1C(=O)[C@@H](NC(=O)c2nc3n(n2)[C@@H](c2ccccc2)CC3(F)F)COc2ccccc21 (racemic) [Example #42, rac-(5R)-7,7-difluoro-5-phenyl-N-[rac-(3S)-5-methyl-4-oxo-2,3-dihydro-1,5-benzoxazepin-3-yl]-5,6-dihydropyrrolo[1,2-b][1,2,4]triazole-2-carboxamide] | 5
3 | Cc1cc2n(n1)CC[C@H](NC(=O)c1nc3n(n1)[C@@H](c1ccccc1)CC3(F)F)C(=O)N2C (racemic) [Example #41, rac-(5R)-7,7-difluoro-5-phenyl-N-[rac-(6S)-2,4-dimethyl-5-oxo-7,8-dihydro-6H-pyrazolo[1,5-a][1,3]diazepin-6-yl]-5,6-dihydropyrrolo[1,2-b][1,2,4]triazole-2-carboxamide] | 35
4 | O=C(N[C@H]1CCc2cc(F)cc(F)c2NC1=O)c1nc2n(n1)[C@@H](c1ccccc1)C[C@@H]2F (mixture of isomers) [Example #31, Rac-(5R,7S)-7-fluoro-5-phenyl-N-[(3S)-7,9-difluoro-2-oxo-1,3,4,5-tetrahydro-1-benzazepin-3-yl]-6,7-dihydro-5H-pyrrolo[1,2-b][1,2,4]triazole-2-carboxamide] | 15
5 | CN1C(=O)[C@@H](NC(=O)c2nc3n(n2)[C@H](c2ccccc2)C[C@@H]3F)COc2ccccc21 (single isomer, unassigned) [Example #30] | 18

The remaining lines, values ahead:

Row | Ki [nM] | SMILES
6 | 24 | CN1C(=O)[C@@H](NC(=O)c2nc3n(n2)[C@H](c2ccccc2)C[C@@H]3F)CCn2nccc21 (racemic) [Example #38, rac-(5S,7S)-7-fluoro-5-phenyl-N-[rac-(6S)-4-methyl-5-oxo-7,8-dihydro-6H-pyrazolo[1,5-a][1,3]diazepin-6-yl]-6,7-dihydro-5H-pyrrolo[1,2-b][1,2,4]triazole-2-carboxamide]
7 | 5 | CN1C(=O)[C@@H](NC(=O)c2nc3n(n2)[C@H](c2ccccc2)C[C@@H]3F)COc2ccccc21 (single isomer, unassigned) [Example #40]
8 | 14 | CN1C(=O)[C@@H](NC(=O)c2nc3n(n2)[C@@H](c2ccccc2)C[C@@H]3F)COc2ccccc21 (mixture of isomers) [Example #32, rac-(5R,7S)-7-fluoro-5-phenyl-N-[(3S)-5-methyl-4-oxo-2,3-dihydro-1,5-benzoxazepin-3-yl]-6,7-dihydro-5H-pyrrolo[1,2-b][1,2,4]triazole-2-carboxamide]

Same assay, conditions: tight-binding apparent inhibition constant (Ki app, Morrison equation); 50 nM enzyme, 50 uM ATP, 2 hours incubation, fluorescence polarization; read-out: RIP1 Ki

Row | SMILES | Ki [nM]
9 | CN1C(=O)[C@@H](NC(=O)c2nc3n(n2)C(c2ccccc2)CC3(F)F)COc2ccccc21 (stereo partly drawn) [Example #25, 7,7-difluoro-5-phenyl-N-[(3S)-5-methyl-4-oxo-2,3-dihydro-1,5-benzoxazepin-3-yl]-5,6-dihydropyrrolo[1,2-b][1,2,4]triazole-2-carboxamide] | 33
10 | O=C(N[C@H]1CCc2cc(F)cc(F)c2NC1=O)c1nc2n(n1)C(c1ccccc1)CC2(F)F (stereo partly drawn) [Example #24, 7,7-difluoro-5-phenyl-N-[(3S)-7,9-difluoro-2-oxo-1,3,4,5-tetrahydro-1-benzazepin-3-yl]-5,6-dihydropyrrolo[1,2-b][1,2,4]triazole-2-carboxamide] | 22
11 | CN1C(=O)[C@@H](NC(=O)c2nc3n(n2)C(c2ccccc2)CC3F)COc2ccccc21 (stereo partly drawn) [Example #28, 7-fluoro-5-phenyl-N-[(3S)-5-methyl-4-oxo-2,3-dihydro-1,5-benzoxazepin-3-yl]-6,7-dihydro-5H-pyrrolo[1,2-b][1,2,4]triazole-2-carboxamide] | 12
12 | O=C(N[C@H]1CCc2cc(F)cc(F)c2NC1=O)c1nc2n(n1)C(c1ccccc1)CC2F (stereo partly drawn) [Example #27, 7-fluoro-5-phenyl-N-[(3S)-7,9-difluoro-2-oxo-1,3,4,5-tetrahydro-1-benzazepin-3-yl]-6,7-dihydro-5H-pyrrolo[1,2-b][1,2,4]triazole-2-carboxamide] | 14
13 | CN1C(=O)[C@@H](NC(=O)c2ncc3cnn(C4CC4)c3n2)COc2ccccc21 [Example #4, 1-cyclopropyl-N-[(3S)-5-methyl-4-oxo-2,3-dihydro-1,5-benzoxazepin-3-yl]pyrazolo[3,4-d]pyrimidine-6-carboxamide] | 22
14 | CN1C(=O)[C@@H](NC(=O)c2ncc3cnn(CC(C)(F)F)c3n2)COc2ccccc21 [Example #3, 1-(2,2-difluoropropyl)-N-[(3S)-5-methyl-4-oxo-2,3-dihydro-1,5-benzoxazepin-3-yl]pyrazolo[3,4-d]pyrimidine-6-carboxamide] | 35
15 | CN1C(=O)[C@@H](NC(=O)c2nc3n(n2)CC[C@H]3c2ccccc2F)CCc2ncccc21 (single isomer, unassigned) [Example #15] | 42
16 | CCC(F)(F)[C@@H]1CCc2nc(C(=O)N[C@H]3COc4ccccc4N(C)C3=O)nn21 (single isomer, unassigned) [Example #44] | 7
17 | CN1C(=O)[C@@H](NC(=O)c2ncn(Cc3ccccc3)n2)CCc2nn(C)cc21 (single isomer, unassigned) [Example #20] | 46
18 | COc1cc2c(cn1)N(C)C(=O)[C@@H](NC(=O)c1nc3n(n1)[C@H](c1ccccc1F)CC3)CC2 (single isomer, unassigned) [Example #11] | 11
19 | Cc1cc2n(n1)CC[C@H](NC(=O)c1nc3n(n1)[C@@H](c1ccccc1)C[C@@H]3F)C(=O)N2C (single isomer, unassigned) [Example #37] | 30
20 | O=C(N[C@H]1CCc2ncccc2NC1=O)c1nc2n(n1)[C@H](c1ccccc1F)CC2 (single isomer, unassigned) [Example #14] | 19
21 | CN1C(=O)[C@@H](NC(=O)c2nc3n(n2)[C@H](c2ccccc2)CC3)CCc2ncccc21 (single isomer, unassigned) [Example #18] | 44

Results, then the compound that gave them:

Row | Ki [nM] | SMILES
22 | 13 | CN1C(=O)[C@@H](NC(=O)c2ncn(Cc3ccccc3F)n2)CCc2c1cnn2C (single isomer, unassigned) [Example #23]
23 | 32 | CN1C(=O)[C@@H](NC(=O)c2nc3n(n2)[C@@H](c2ccccc2)C[C@@H]3F)CCn2nccc21 (single isomer, unassigned) [Example #36]
24 | 29 | CN1C(=O)[C@@H](NC(=O)c2cc3c(cn2)cnn3CC(C)(F)F)COc2ccccc21 [Example #2, 1-(2,2-difluoropropyl)-N-[(3S)-5-methyl-4-oxo-2,3-dihydro-1,5-benzoxazepin-3-yl]pyrazolo[4,3-c]pyridine-6-carboxamide]
25 | 15 | CN1C(=O)[C@@H](NC(=O)c2nc3n(n2)[C@H](c2ccccc2)C[C@H]3F)COc2ccccc21 (single isomer, unassigned) [Example #35]
26 | 16 | CN1C(=O)[C@@H](NC(=O)c2ncn(Cc3ccccc3)n2)CCn2nc(CC3CCOC3)cc21 (stereo partly drawn) [Example #19, 1-benzyl-N-[(6S)-4-methyl-5-oxo-2-(tetrahydrofuran-3-ylmethyl)-7,8-dihydro-6H-pyrazolo[1,5-a][1,3]diazepin-6-yl]-1,2,4-triazole-3-carboxamide]
27 | 14 | CN1C(=O)[C@@H](NC(=O)c2ncn(Cc3ccccc3)n2)CCc2c1cnn2C (single isomer, unassigned) [Example #22]
28 | 29 | CN1C(=O)[C@@H](NC(=O)c2nc3n(n2)[C@@H](c2ccccc2F)CC3)CCc2ncccc21 (single isomer, unassigned) [Example #16]
29 | 22 | CN1C(=O)[C@@H](NC(=O)c2nc3n(n2)CC[C@H]3c2ccccc2F)CCn2nccc21 (single isomer, unassigned) [Example #7]
30 | 37 | CN1C(=O)[C@@H](NC(=O)c2nc3n(n2)CC[C@H]3c2ccccc2)CCc2ncccc21 (single isomer, unassigned) [Example #17]
31 | 41 | O=C(N[C@H]1CCc2ncccc2NC1=O)c1nc2n(n1)[C@@H](c1ccccc1)CC2 (single isomer, unassigned) [Example #13]
32 | 31 | O=C(N[C@H]1CCc2cc(F)cc(F)c2NC1=O)c1nc2n(n1)[C@H](c1ccccc1)C[C@H]2F (single isomer, unassigned) [Example #34]
33 | 11 | O=C(N[C@H]1CCc2cc(F)cc(F)c2NC1=O)c1cc2n(n1)CCOC2c1ccccc1 (stereo partly drawn) [Example #5, 4-phenyl-N-[(3S)-7,9-difluoro-2-oxo-1,3,4,5-tetrahydro-1-benzazepin-3-yl]-6,7-dihydro-4H-pyrazolo[5,1-c][1,4]oxazine-2-carboxamide]
34 | 13 | O=C(N[C@H]1CCc2cc(F)cc(F)c2NC1=O)c1nc2n(n1)[C@@H](c1ccccc1)C[C@H]2F (single isomer, unassigned) [Example #33]
